Reference: US12421212B2, “Substituted benzenecarboxamides as IL-17A modulators” (DiCE Alpha, Inc., priority 2019, dated 2025)

Target: T1, IL-17A/A (Homo sapiens, UniProt Q16552)
T1 construct: purchased Genscript Z03228
T1 sequence (Q16552 24-155): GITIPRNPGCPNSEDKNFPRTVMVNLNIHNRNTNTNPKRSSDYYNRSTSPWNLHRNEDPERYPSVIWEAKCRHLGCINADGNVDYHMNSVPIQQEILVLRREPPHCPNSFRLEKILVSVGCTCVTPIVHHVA
Assay: IL-17A/A HEK-Blue Cell Assay
Assay type: cell-based
Conditions: HEK-Blue IL-17A reporter cell line, SEAP readout at A630, 20 hours incubation with IL-17A/A; top concentration 10 uM, 1 uM or 0.3 uM

Compound | IL-17A/A inhibition (pIC50)
CCC(=O)N[C@@H](C(=O)N1CCN(C)CC1)[C@@H](C)c1ccc(NC(=O)[C@@H](NC(=O)C(F)(F)C2CCOCC2)[C@H]2CC[C@H](C)CC2)c(F)c1 [Compound 660] | X3a (compounds were evaluated up to 0.3 uM and did not inhibit activity by >80%, however they showed some activity at 0.3 uM (less than 80% and more than 20%))
CCC(=O)N[C@@H](C(=O)O)[C@@H](C)c1ccc(NC(=O)[C@@H](NC(=O)c2ccnn2CC)[C@H]2CC[C@H](C)CC2)c(F)c1 [Compound 661] | X3b (compounds were evaluated up to 0.3 uM and inhibited activity at 0.3 uM by less than 20%)
CCC(=O)NC(C(=O)N1CCN(C(C)C)CC1)[C@@H](C)c1ccc(NC(=O)[C@@H](NC(=O)c2ccnn2CC)[C@H]2CC[C@H](C)CC2)c(F)c1 (stereo partly drawn) [Compound 664] | X3b (compounds were evaluated up to 0.3 uM and inhibited activity at 0.3 uM by less than 20%)

Same assay, conditions: HEK-Blue IL-17A reporter cell line, SEAP readout at A630, 20 hours incubation with IL-17A/A; top concentration 10 uM, 1 uM or 0.3 uM; read-out: IL-17A/A inhibition (pIC50) (converted)

Compound | IC50 [µM]
CCC(=O)N[C@@H](C(=O)N1CC(F)(F)C1)[C@@H](C)c1ccc(NC(=O)[C@@H](NC(=O)c2ccnn2CC)C2CCCCC2)c(F)c1 [Compound 629] | 0.1 to 10
CCC(=O)N[C@H](Cc1ccc(NC(=O)[C@@H](NC(=O)c2conc2CC)[C@H]2CC[C@H](C)CC2)c(F)c1)C(=O)N1CCN(C)CC1 [Compound 630] | 0.1 to 10
CCC(=O)N[C@@H](C(=O)N1CCN(C)CC1)[C@@H](C)c1ccc(NC(=O)[C@@H](NC(=O)c2csc3ccncc23)C2CCCCC2)c(F)c1 [Compound 631] | 0.1 to 10
CCC(=O)N[C@H](Cc1ccc(NC(=O)[C@@H](NC(=O)c2coc3ccccc23)C2CCCCC2)c(F)c1)C(=O)N1CCN(C)CC1 [Compound 632] | 0.1 to 10
CCC(=O)N[C@@H](C(=O)N1CCN(C)CC1)[C@@H](C)c1ccc(NC(=O)[C@@H](NC(=O)c2ccnn2C(C)C)C2CCCCC2)cc1 [Compound 633] | 0.1 to 10
CCC(=O)N[C@H](Cc1ccc(NC(=O)C(NC(=O)c2ccnn2CC)C2CCc3ccccc3C2)c(F)c1)C(=O)N1CCN(C)CC1 (stereo partly drawn) [Compound 634] | 0.1 to 10
CCn1nccc1C(=O)N[C@H](C(=O)Nc1ccc([C@H](C)[C@@H](NC(=O)c2ccc(C)s2)C(=O)N2CCN(C)CC2)cc1F)C1CCCCC1 [Compound 635] | 0.1 to 10
CCn1nccc1C(=O)N[C@H](C(=O)Nc1ccc([C@H](C)[C@@H](NC(=O)NC)C(=O)N2CCN(C)CC2)cc1F)C1CCCCC1 [Compound 636] | 0.1 to 10
CCC(=O)N[C@H](Cc1ccc(NC(=O)[C@@H](NC(=O)c2ccnn2C(C)C)C2CCCCC2)c(F)c1)C(=O)N1CCN(C)CC1 [Compound 637] | 0.1 to 10
CCC(=O)N[C@@H](C(=O)N1CCN(C)CC1)[C@@H](C)c1ccc(NC(=O)[C@@H](NC(=O)C(F)(F)c2ccccc2C#N)C2CCCCC2)c(F)c1 [Compound 638] | 0.1 to 10
CCC(=O)N[C@@H](C(=O)N1CCN(C)CC1)[C@@H](C)c1ccc(NC(=O)[C@@H](NC(=O)c2ccnn2CC)C2CCCCC2)cc1 [Compound 639] | 0.1 to 10
CCC(=O)N[C@H](Cc1ccc(NC(=O)[C@@H](NC(=O)c2ccnn2CC)C2CCCCC2)c(F)c1)C(=O)N1CCN(Cc2ccccn2)CC1 [Compound 640] | 0.1 to 10
CCC(=O)N[C@H](Cc1ccc(NC(=O)[C@@H](NC(=O)C(F)(F)c2cccc(NS(C)(=O)=O)c2)C2CCCCC2)c(F)c1)C(=O)N1CCN(C)CC1 [Compound 642] | 0.1 to 10
CCn1nccc1C(=O)N[C@H](C(=O)Nc1ccc([C@H](C)[C@@H](NC(=O)CC(F)(F)F)C(=O)N2CCN(C)CC2)cc1F)C1CCCCC1 [Compound 643] | 0.1 to 10
CCn1nccc1C(=O)N[C@H](C(=O)Nc1ccc([C@H](C)[C@@H](NC(=O)c2csnn2)C(=O)N2CCN(C)CC2)cc1F)C1CCCCC1 [Compound 644] | 0.1 to 10
CCC(=O)N[C@H](Cc1ccc(NC(=O)[C@@H](NC(=O)c2ccnn2CC)C2CCCCC2)c(F)c1)C(=O)N1CCN(C)CC1 [Compound 645] | 0.1 to 10
CCC(=O)N[C@H](Cc1ccc(NC(=O)[C@@H](NC(=O)c2ccnn2CC(C)C)C2CCCCC2)c(F)c1)C(=O)N1CCN(C)CC1 [Compound 646] | 0.1 to 10
CCC(=O)N[C@H](Cc1ccc(NC(=O)[C@@H](NC(=O)c2ccnn2CC)[C@@H](C)c2ccccc2)c(F)c1)C(=O)N1CCN(C)CC1 [Compound 647] | 0.1 to 10
CCC(=O)N[C@H](Cc1ccc(NC(=O)[C@@H](NC(=O)c2ccnn2CC(F)(F)F)C2CCCCC2)c(F)c1)C(=O)N1CCN(C)CC1 [Compound 648] | 0.1 to 10
CCC(=O)N[C@@H](C(=O)N1CCN(C)CC1)[C@@H](C)c1ccc(NC(=O)[C@@H](NC(=O)c2ccnn2CC)[C@H]2CC[C@H](C(F)(F)F)CC2)c(F)c1 [Compound 649] | 0.1 to 10
CCn1nccc1C(=O)N[C@H](C(=O)Nc1ccc(C[C@@H](NC(=O)CC2CC2)C(=O)N2CCN(C)CC2)cc1F)C1CCCCC1 [Compound 650] | 0.1 to 10
CCC(=O)N[C@H](Cc1ccc(NC(=O)[C@@H](NC(=O)c2ccnn2CC)C2CCCCC2)c(F)c1)C(=O)N1CCN(C(C)C)CC1 [Compound 651] | 0.1 to 10
CCC(=O)NC(Cc1ccc(NC(=O)[C@@H](NC(=O)c2ccnn2CC)C2CCCCC2)c(F)c1)C(=O)N1CCN(Cc2cccnc2)CC1 (stereo partly drawn) [Compound 652] | 0.1 to 10
CCC(=O)N[C@@H](C(=O)N1CCN(C)CC1)[C@@H](C)c1ccc(NC(=O)[C@@H](NC(=O)C(F)(F)C2CCN(C(C)=O)CC2)C2CCCCC2)c(F)c1 [Compound 653] | 0.1 to 10

Compound | IC50 [µM]
CCn1nccc1C(=O)N[C@H](C(=O)Nc1ccc([C@H](C)[C@@H](NC(=O)c2cc(C#N)n[nH]2)C(=O)N2CCN(C)CC2)cc1F)C1CCCCC1 [Compound 655] | 0.1 to 10
CCn1nccc1C(=O)N[C@H](C(=O)Nc1ccc([C@H](C)[C@@H](NC(=O)c2cc(C)no2)C(=O)N2CCN(C)CC2)cc1F)C1CCCCC1 [Compound 656] | 0.1 to 10
CCn1nccc1C(=O)N[C@H](C(=O)Nc1ccc([C@H](C)[C@@H](NC(=O)c2cncn2C)C(=O)N2CCN(C)CC2)cc1F)C1CCCCC1 [Compound 657] | 0.1 to 10
CCn1nccc1C(=O)N[C@H](C(=O)Nc1ccc([C@H](C)[C@@H](NC(=O)CC#N)C(=O)N2CCN(C)CC2)cc1F)C1CCCCC1 [Compound 665] | 0.1 to 10
CCn1nccc1C(=O)N[C@H](C(=O)Nc1ccc([C@H](C)[C@@H](NC(=O)c2cc(C)n[nH]2)C(=O)N2CCN(C)CC2)cc1F)C1CCCCC1 [Compound 666] | 0.1 to 10
CCC(=O)N[C@H](Cc1ccc(NC(=O)[C@@H](NC(=O)c2ccnn2CC)C2CCCCC2)c(F)c1)C(=O)N1CC(N(C)C)C1 [Compound 667] | 0.1 to 10
CCC(=O)N[C@H](Cc1ccc(NC(=O)[C@@H](NC(=O)c2ccnn2CC(F)F)C2CCCCC2)c(F)c1)C(=O)N1CCN(C)CC1 [Compound 669] | 0.1 to 10
CCC(=O)N[C@@H](C(=O)N1CCN(Cc2ccccc2)CC1)[C@H](C)c1ccc(NC(=O)[C@@H](NC(=O)c2ccnn2CC)C2CCCCC2)c(F)c1 [Compound 670] | 0.1 to 10
CCC(=O)N[C@H](Cc1ccc(NC(=O)[C@@H](NC(=O)c2coc3ccc(OC)cc23)C2CCCCC2)c(F)c1)C(=O)N1CCN(C)CC1 [Compound 671] | 0.1 to 10
CCC(=O)N[C@H](Cc1ccc(NC(=O)[C@@H](NC(=O)c2ccnn2C(C)C)C2CCC(F)(F)CC2)c(F)c1)C(=O)N1CCN(C)CC1 [Compound 672] | 0.1 to 10
CCC(=O)N[C@@H](C(=O)N1CCN(C)CC1)[C@@H](C)c1ccc(NC(=O)[C@@H](NC(=O)C(F)(F)c2cccc(C#N)c2)C2CCOCC2)c(F)c1 [Compound 674] | 0.1 to 10
CCC(=O)N[C@H](Cc1ccc(NC(=O)[C@@H](NC(=O)c2ccnn2C2CC2)C2CCCCC2)c(F)c1)C(=O)N1CCN(C)CC1 [Compound 676] | 0.1 to 10
CCn1nccc1C(=O)N[C@H](C(=O)Nc1ccc([C@H](C)[C@@H](NC(=O)c2cn[nH]c2)C(=O)N2CCN(C)CC2)cc1F)C1CCCCC1 [Compound 677] | 0.1 to 10
CCn1nccc1C(=O)N[C@H](C(=O)Nc1ccc([C@H](C)[C@@H](NC(=O)c2cnc(C)n2C)C(=O)N2CCN(C)CC2)cc1F)C1CCCCC1 [Compound 678] | 0.1 to 10
CCC(=O)N[C@H](Cc1ccc(NC(=O)[C@@H](NC(=O)c2ccnn2CC)C2CCCCC2)c(F)c1)C(=O)N1CCN(CCF)CC1 [Compound 679] | 0.1 to 10
CCC(=O)N[C@@H](C(=O)N1CCN(C)CC1)[C@@H](CC)c1ccc(NC(=O)[C@@H](NC(=O)c2ccnn2CC)C2CCCCC2)cc1 [Compound 680] | 0.1 to 10
CCn1nccc1C(=O)N[C@H](C(=O)Nc1ccc([C@H](C)[C@@H](NC(=O)c2c[nH]c(=O)[nH]2)C(=O)N2CCN(C)CC2)cc1F)C1CCCCC1 [Compound 681] | 0.1 to 10
CCn1nccc1C(=O)N[C@H](C(=O)Nc1ccc([C@H](C)[C@@H](NC(=O)c2cscn2)C(=O)N2CCN(C)CC2)cc1F)C1CCCCC1 [Compound 682] | 0.1 to 10
CCn1nccc1C(=O)N[C@H](C(=O)Nc1ccc([C@H](C)[C@@H](NC(=O)c2coc(C)n2)C(=O)N2CCN(C)CC2)cc1F)C1CCCCC1 [Compound 683] | 0.1 to 10
CCC(=O)N[C@@H](C(=O)N1CCN(C)CC1)[C@@H](C)c1ccc(NC(=O)[C@@H](NC(=O)C(F)(F)c2cccc(C)c2)C2CCCCC2)c(F)c1 [Compound 684] | 0.1 to 10
CCn1nccc1C(=O)N[C@H](C(=O)Nc1ccc([C@H](C)[C@@H](NC(=O)c2ccsn2)C(=O)N2CCN(C)CC2)cc1F)C1CCCCC1 [Compound 685] | 0.1 to 10
CCC(=O)N[C@H](Cc1ccc(NC(=O)[C@@H](NC(=O)c2ccnn2CC)C2CCCCC2)c(F)c1)C(=O)N1CCN(C)C[C@@H]1C [Compound 686] | 0.1 to 10
CCn1nccc1C(=O)N[C@H](C(=O)Nc1ccc([C@H](C)[C@@H](NC(=O)c2cc(C)on2)C(=O)N2CCN(C)CC2)cc1F)C1CCCCC1 [Compound 687] | 0.1 to 10
CCC(=O)N[C@H](Cc1ccc(NC(=O)[C@@H](NC(=O)c2cnn3c2SCC3)C2CCCCC2)c(F)c1)C(=O)N1CCN(C)CC1 [Compound 688] | 0.1 to 10
